One test concerns human platelet. As to the kind of experiment: Inhibition of human platelet aggregation in vitro. The class given is cell-based. To be noted: human platelet rich plasma, collagen-induced. The protocol:
(E) effect on human platelet aggregation in vitro; and
The ability of test compounds to inhibit platelet aggregation was determined by a modification of the turbidometric technique of Born, G. V. R. (Nature, 194: 927 [1962]). Blood was collected from human volunteers, who had not ingested aspirin or aspirin-containing products within the preceding two weeks, in heparinized containers and was allowed to settle for one (1) hour. The platelet rich plasma (prp) supernates were collected and pooled. Siliconized glassware was used throughout.
In a representative assay, 1.9 ml of PRP and 0.2 ml of test compound at the appropriate concentration ([…]), or 0.2 ml of distilled water (control procedure) were placed in sample cuvettes. The cuvettes were placed in a 37° C. incubation block for 15 minutes, and then in a spectrophotometer linked to a strip chart recorder. After 30-60 seconds, 0.2 ml of a solution, prepared by diluting a calf-skin collagen solution 1:9 with Tyrodes' Solution, was added to each cuvette. Platelet aggregation was evidenced by a decrease in optical density.
An ED50 value was then determined graphically.

The next test concerns rat stomach fundus. The test can be described thus: Cascade assay: rat stomach fundus. It counts as cell-based. The note with it: in vitro, smooth muscle stimulant ED50 scored. The protocol: (§1) (A) effects on the rat stomach, rat colon, chick rectum, and rabbit aorta in vitro (cascade assay);
(§2) The smooth muscle stimulant effects of test compounds were determined simultaneously in four different tissues that are known to be reactive to naturally occurring prostaglandins. Segments of rat stomach fundus, rat colon, chick rectum and rabbit aortic strip were obtained as described by: Vane, J. R., Brit. J. Pharmacol., 12: 344 (1957); Regoli, D. and Vane, J. R., Brit. J. Pharmacol., 23: 351 (1964); Mann, M. and West, G. B., Brit. J. Pharmacol., 5: 173 (1950); and Furchgott, R. F. and Bhadrakom, R., J. Pharmacol. Exper. Ther., 108: 129 (1953). One end of each preparation was tied to the bottom of a 10 ml tissue chamber and the other to a force displacement transducer (Grass FT-03) for continuous tension recording. The stomach, colon, and rectum segments were stretched to an initial tension of 1 g, while the aortic strip was subjected to 4 g. All preparations were left undisturbed for 1 hour prior to testing. […]
(§3) Test compounds were diluted from stock solutions so as to administer quantities ranging from 0.0001 to 100,000 ng in a volume of 0.5 ml. […] Maximal increases in tension after each dose were measured and the results were used to plot dose-response curves. […]
(§4) Activity in each tissue was scored according to the following scale: […]

The next test relates to chick rectum. As to the kind of experiment: Cascade assay: chick rectum. The class given is cell-based. To be noted: in vitro, smooth muscle stimulant ED50 scored. The procedure:
as §1, §2, §3, §4

In another test the test system is rat colon. As to the kind of experiment: Cascade assay: rat colon. The class given is cell-based. The note with it: in vitro, smooth muscle stimulant ED50 scored. The procedure: as §1, §2, §3, §4
In the next test the test system is rat uterus. As to the kind of experiment: Effects on the rat uterus in vitro. The class given is cell-based. The note with it: dose producing response 50% that of carbachol. The protocol: (B) effect on the rat uterus in vitro;
The uterine stimulant effect of test compounds was determined in segments of uterus obtained from rats (140-160 g) pretreated subcutaneously with 1 mg/kg of diethylstilbesterol 18 hours before the experiment. The tissues were placed in 10 ml chambers filled with de-Jalon solution at 29° C., were aerated and bubbled with 95% O2 and 5% CO2, and were prepared for isometric recording with force displacement transducers. Preparations were stretched to an initial tension of 1 g and were left undisturbed for 30 minutes. Carbachol (1 mcg/ml) was then added to the bath and a response was recorded. After a ten minute interval the carbachol procedure was repeated. Responses to increasing concentrations of a test compound (0.001 to 10 mcg/ml with one log intervals) were then recorded every 10 minutes. Preparations were washed four times after each response. All doses of compounds were administered in a 0.1 ml volume. Because it has been observed that the magnitude of the second response to carbachol (approximately 10% greater than the first) is close to the maximal response of the tissue, such value was taken as a measure of the sensitivity of a particular segment. Responses to each concentration of the test compound were expressed in terms of percentage of the second response to carbachol and the ED50 (dose producing a response 50% that of carbachol) was calculated graphically.
Activity was scored according to the following scale: […]

A further test deals with rat. As to the kind of experiment: Effects on gastric secretion in the rat. It counts as in vivo. To be noted: pylorus ligated, 1.5 mg/kg s.c. twice (total 3.0 mg/kg), 4 hours. The procedure: (F) effect on gastric secretion in the rat;
A procedure based on that described by Lipman, W. (J. Pharm. Pharmacol., 21: 335 [1968]) was used to assess the influence of test compounds on gastric secretion. Rats of one sex weighing 150 to 200 g were randomly divided into groups of six animals each and fasted for 48 hours previous to the experiments, water being available ad libitum. The animals were anesthetized with ether, the abdomen opened through a midline incision, and the pylorus ligated. Test compounds were diluted from stock solution so as to administer a dose of 1.5 mg/kg in a volume equivalent to 1 ml/kg. Subcutaneous injections were applied immediately after surgery and again 2 hours later, so that a total dose of 3.0 mg/kg was administered. Dilutions were made with phosphate buffer (pH 7.38) as recommended by Lee et al. (Prostaglandins, 3: 29 [1973]) in order to insure adequate stability of drugs at the subcutaneous depot. […]
Four hours after pyllric ligation the animals were killed with ether, the cardias ligated, and the stomachs removed. The volume of gastric secretion was measured and the contents centrifuged at 5000 rpm for 10 minutes. […]
Volume and total acid values of the treated group were compared with those of the controls […]. Antisecretory activity was scored according to the following scale: […]

Another test relates to rabbit aortic strip. The test can be described thus: Cascade assay: rabbit aortic strip. It counts as cell-based. To be noted: in vitro, smooth muscle stimulant ED50 scored. The procedure:
as §1, §2, §3, §4

For a further test, the system named is growth hormone. To be noted: rats; cited from earlier work.
The test system of the next test is adrenal glands. To be noted: hypophysectomized rats; cited from earlier work.
Test [1] relates to female reproductive system. The note with it: cited from earlier work; for labor / abortion effect: inducing labor, early pregnancy.
Another test concerns tracheal smooth muscle. The note with it: in vitro, most mammalian respiratory tracts; cited from earlier work.
Test [2] has as its system motor pathways in the central nervous system. The note with it: cited from earlier work.

Regarding `CCCCC[C@@H](O)/C(=C/C1C=CC(=O)C1CCCCCCC(=O)O)c1ccccc1` (stereo partly drawn) [Example 12, 14-Phenyl-15R-hydroxy-9-oxo-ent-prosta-10,13E-dien-1-oic acid], in the test on human platelet, the “Platelet Aggregation: activity value (ED50)” value was 1 (>0.1 and ≤1.0). Besides, the “Cascade, Stomache: activity value (ED50)” value in the test on rat stomach fundus is 0 (>10000). In addition, the “Cascade, Rectum: activity value (ED50)” value with chick rectum is 0 (>10000). Besides, in the test on rat colon, the “Cascade, Colon: activity value (ED50)” value is recorded as 0 (>10000). Besides, the “Rat Uterus: activity value (ED50)” value with rat uterus was 0 (>10). The “Gastric Secretion: activity value (% decrease in acidity)” value in the test on rat is on record as 0 (<26). Further, the “Cascade, Aorta: activity value (ED50)” value in the test on rabbit aortic strip was 0 (>10000).
In the case of `CCCCC[C@@H](O)/C(=C/[C@H]1[C@H](O)CC(=O)[C@@H]1CCCCCCC(=O)O)c1ccccc1` [Example 3, 14-phenyl-11α,15R-dihydroxy-9-oxoprost-13E-en-1-oic acid], the “Rat Uterus: activity value (ED50)” value with rat uterus is 0 (>10).
The same measure, in the same setting: to `CCCCC[C@H](O)/C(=C/[C@H]1[C@H](O)CC(=O)[C@@H]1CCCCCCC(=O)O)c1ccccc1` [Example 2, 14-Phenyl-11α,15S-dihydroxy-9-oxoprost-13E-en-1-oic acid] belongs 0 (>10); to `CCCCC[C@H](O)/C(=C/C1CCC(=O)C1C/C=C\CCCC(=O)O)c1ccccc1` (mixture of isomers) [Example 10, dl-14-Phenyl-15S-hydroxy-9-oxoprosta-5Z,13E-dien-1-oic acid], 0 (>10); to `CCCCCC(O)/C(=C/C1CCC(=O)C1CCCCCCC(=O)OC)c1ccccc1` (racemic) [Example 5, Methyl dl-14-phenyl-15R,S-hydroxy-9-oxoprost-13E-en-1-oate], 0 (>10).
In the case of `CCCCC[C@H](O)/C=C/[C@H]1[C@H](O)CC(=O)[C@@H]1C/C=C\CCCC(=O)O` [PGE2], in the test on growth hormone, the “release of the growth hormone” value was “increase the release of the growth hormone”. Besides, the “steroidogenesis in the adrenal glands” value in the test with adrenal glands is “stimulate stereoidogenesis in the adrenal glands”. In addition, the “labor / abortion effect” value in test [1] is reported as “produces potent oxytocic effects in inducing labor”. Besides, in the test on tracheal smooth muscle, the “effect on tracheal smooth muscle” value is reported as “relax”.
Turning to `CCCCC[C@H](O)/C=C/[C@@H]1[C@@H](C/C=C\CCCC(=O)O)[C@@H](O)C[C@H]1O` [PGF2α], the “fertility / gestation effect” value in test [1] (female reproductive system) is recorded as “has contragestational effects”. For the same compound, the “labor / abortion effect” value in test [1] is on record as “induces spontaneous abortions in early pregnancy”. In addition, the “effect on tracheal smooth muscle” value in the test on tracheal smooth muscle is “contracts such smooth muscle”. Moreover, the “transmission along motor pathways in the central nervous system” value in test [2] was “facilitates transmission along motor pathways in the central nervous system”.
Take `CCCCCC(O)/C(=C/[C@@H]1[C@@H](C/C=C\CCCC(=O)O)[C@@H](O)C[C@H]1O)c1ccccc1` (stereo partly drawn) [Example 14, 14-Phenyl-9α,11α,15R,S-trihydroxyprosta-5Z,13E-dien-1-oic acid]: the “Rat Uterus: activity value (ED50)” value in the test on rat uterus is listed as 0 (>10).
With `CCCCC[C@@H](O)/C(=C/C1CCC(=O)C1C/C=C\CCCC(=O)OC)c1ccccc1` (mixture of isomers) [Example 8, Methyl dl-14-phenyl-15R-hydroxy-9-oxoprosta-5,13E-dien-1-oate], the “Rat Uterus: activity value (ED50)” value in the test on rat uterus is 0 (>10).
Consider `CCCCC[C@H](O)/C(=C/[C@H]1[C@H](O)CC(=O)[C@@H]1C/C=C\CCCC(=O)OCC)c1ccccc1` [Example 7B, Ethyl-14-Phenyl-11α,15S-dihydroxy-9-oxoprosta-5Z-13E-dien-1-oate], for which the “Rat Uterus: activity value (ED50)” value in the test with rat uterus is 0 (>10).
As for `CCCCC[C@@H](O)/C(=C/C1CCC(=O)C1C/C=C\CCCC(=O)O)c1ccccc1` (mixture of isomers) [Example 11, dl-14-Phenyl-15R-hydroxy-9-oxoprosta-5Z-13E-dien-1-oic acid], the “Rat Uterus: activity value (ED50)” value in the test with rat uterus is recorded as 0 (>10).
Take `CCCCC[C@H](O)/C(=C/C1CCC(=O)C1C/C=C\CCCC(=O)OC)c1ccccc1` (mixture of isomers) [Example 9, Methyl dl-14-phenyl-15S-hydroxy-9-oxoprosta-5Z,13E-dien-1-oate]: the “Rat Uterus: activity value (ED50)” value in the test on rat uterus is recorded as 0 (>10).

The values are drawn from patent US4149007A, “C14 Phenyl-substituted derivatives of prostaglandin analogues” (Miles Laboratories, Inc., priority 1977, dated 1979).
